Measured values as given in paper PMC9579398 (Clinical and Translational Science, 2022).
Read-outs that look alike come from different tables or passages of the source.

Legend:
[1] = Ussing chamber drug transport across pediatric intestinal tissue; conditions: human
[2] = Ussing chamber drug transport across adult intestinal tissue; conditions: human
[3] = tested on: adult terminal ileum tissue; assay: as above; conditions: adult, M > S (mucosal to serosal)
jejunum = conditions: mucosal to serosal direction, cited from earlier work
[4] = human in vivo; cited from earlier work
[5] = Papp, estimated marginal mean ± SE, pediatric, M > S (mucosal to serosal), mixed model
[6] = Papp, estimated marginal mean ± SE, pediatric, S > M (serosal to mucosal), mixed model
[7] = Papp, mean ± SD, pediatric, M > S (mucosal to serosal)
[8] = Papp, mean ± SD, pediatric, S > M (serosal to mucosal)
[9] = Papp, estimated marginal mean ± SE, adult, M > S (mucosal to serosal), mixed model
[10] = Papp, estimated marginal mean ± SE, adult, S > M (serosal to mucosal), mixed model
[11] = Papp, mean ± SD, adult, M > S (mucosal to serosal)
[12] = Papp, mean ± SD, adult, S > M (serosal to mucosal)
[13] = adult jejunum, ref Michiba et al., 2021 [19]

Structure (SMILES)	Papp [1, 5] [×10⁻⁶ cm/s]	Papp [1, 6] [×10⁻⁶ cm/s]	Papp [1, 7] [×10⁻⁶ cm/s]	Papp [1, 8] [×10⁻⁶ cm/s]	Papp [2, 9] [×10⁻⁶ cm/s]	Papp [2, 10] [×10⁻⁶ cm/s]	Papp [2, 11] [×10⁻⁶ cm/s]	Papp [2, 12] [×10⁻⁶ cm/s]	Papp, mean ± SD [3]	Papp (jejunum; [13])	fraction absorbed [4] [%]	efflux ratio [1]	Papp at 4 µM [1, 8] [×10⁻⁶ cm/s]	efflux ratio [2]	Papp at 4 µM [2, 12] [×10⁻⁶ cm/s]	Papp (jejunum; jejunum, ref Sjoberg et al., 2013 [17])
CC(C)NCC(O)COc1cccc2ccccc12 (stereo not shown) [Propranolol]	7.98 ± 1.45	7.74 ± 1.47	7.49 ± 4.58	8.27 ± 4.7	12 ± 1.28	10.3 ± 1.27	12.4 ± 6.2	10.7 ± 5.02	12.38 ± 6.15 ×10^–6 cm/s	7.8 ± 4.6 × 10^−6 cm/s	–	–	–	–	–	–
CC(C)c1nc(N(C)S(C)(=O)=O)nc(-c2ccc(F)cc2)c1/C=C/[C@@H](O)C[C@@H](O)CC(=O)O [Rosuvastatin]	3.8 ± 0.88	7.53 ± 1	4.73 ± 2.04	7.53 ± 3.66	6.32 ± 0.97	11.2 ± 0.91	6.3 ± 2.8	11.2 ± 5.49	–	1.6 ± 0.6 × 10^−6 cm/s	50	1.3 ± 0.6	7.5 ± 3.7	2.1 ± 1	11.2 ± 5.5	7.0 ± 1.0 × 10^−6 cm/s
